Source: ChEMBL document CHEMBL1201862, “PubChem BioAssay data set” (2004)
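Results reflect a 48-hour exposure of cells in 96-well plates to compound at five concentrations. GI50 marks 50% less growth.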 Activity calls are given as the source filed them. Cut-off read from the data, not from the text of the source: active = GI50 up to about 1.1 µM and inactive = higher.

What was measured:
Assay in all cases: NCI anticancer screen, dose series, 48 h
OVCAR-8 = system: OVCAR-8
MDA-N = system: MDA-N
HOP-62 = system: HOP-62
NCI/ADR-RES = system: NCI/ADR-RES
LOX IMVI = system: LOX IMVI
HL-60 = system: HL-60
RPMI-8226 = system: RPMI-8226
MOLT-4 = system: MOLT-4
UACC-62 = system: UACC-62
Hs-578T = system: Hs-578T
SK-OV-3 = system: SK-OV-3
T47D = system: T47D
SF-539 = system: SF-539
NCI-H460 = system: NCI-H460
K562 = system: K562
SK-MEL-5 = system: SK-MEL-5
M14 = system: M14
HCT-15 = system: HCT-15
MCF7 = system: MCF7
MDA-MB-231 = system: MDA-MB-231
SN12C = system: SN12C
HOP-92 = system: HOP-92
ACHN = system: ACHN
NCI-H23 = system: NCI-H23
A549 = system: A549
IGROV-1 = system: IGROV-1
786-0 = system: 786-0
A498 = system: A498
SNB-75 = system: SNB-75
TK-10 = system: TK-10
PC-3 = system: PC-3
NCI-H226 = system: NCI-H226
OVCAR-5 = system: OVCAR-5
SK-MEL-2 = system: SK-MEL-2
EKVX = system: EKVX
UO-31 = system: UO-31
U-251 = system: U-251
SK-MEL-28 = system: SK-MEL-28
SNB-19 = system: SNB-19
DU-145 = system: DU-145
SF-268 = system: SF-268
MDA-MB-435 = system: MDA-MB-435
HCC 2998 = system: HCC 2998
SW-620 = system: SW-620
HCT-116 = system: HCT-116
CCRF-CEM = system: CCRF-CEM
COLO 205 = system: COLO 205
SR = system: SR
HT-29 = system: HT-29
SF-295 = system: SF-295
CAKI-1 = system: CAKI-1
UACC-257 = system: UACC-257
NCI-H522 = system: NCI-H522
Malme-3M = system: Malme-3M
KM12 = system: KM12
RXF 393 = system: RXF 393
OVCAR-4 = system: OVCAR-4
OVCAR-3 = system: OVCAR-3
BT-549 = system: BT-549

## CC1(C)CCC(C)(C)C1C(=O)NC(O)C(=O)O (centres undefined)
OVCAR-8
  GI50: > 100 µM (inactive)
MDA-N
  GI50: > 100 µM (inactive)
HOP-62
  GI50: > 100 µM (inactive)
NCI/ADR-RES
  GI50: > 100 µM (inactive)
LOX IMVI
  GI50: > 100 µM (inactive)
HL-60
  GI50: > 100 µM (inactive)
RPMI-8226
  GI50: > 100 µM (inactive)
MOLT-4
  GI50: > 100 µM (inactive)
UACC-62
  GI50: > 100 µM (inactive)
Hs-578T
  GI50: > 100 µM (inactive)
SK-OV-3
  GI50: > 100 µM (inactive)
T47D
  GI50: > 100 µM (inactive)
SF-539
  GI50: > 100 µM (inactive)
NCI-H460
  GI50: > 100 µM (inactive)
K562
  GI50: > 100 µM (inactive)
SK-MEL-5
  GI50: > 100 µM (inactive)
M14
  GI50: > 100 µM (inactive)
HCT-15
  GI50: > 100 µM
MCF7
  GI50: > 100 µM (inactive)
MDA-MB-231
  GI50: > 100 µM (inactive)
SN12C
  GI50: > 100 µM (inactive)
HOP-92
  GI50: 2.43 µM (inactive)
ACHN
  GI50: > 100 µM (inactive)
NCI-H23
  GI50: > 10 µM (inactive)
A549
  GI50: > 100 µM (inactive)
IGROV-1
  GI50: > 100 µM (inactive)
786-0
  GI50: > 100 µM (inactive)
A498
  GI50: > 100 µM (inactive)
SNB-75
  GI50: > 100 µM (inactive)
TK-10
  GI50: > 100 µM (inactive)
PC-3
  GI50: > 100 µM (inactive)
NCI-H226
  GI50: > 100 µM (inactive)
OVCAR-5
  GI50: > 100 µM (inactive)
SK-MEL-2
  GI50: > 100 µM (inactive)
EKVX
  GI50: > 100 µM (inactive)
UO-31
  GI50: > 100 µM (inactive)
U-251
  GI50: > 100 µM (inactive)
SK-MEL-28
  GI50: > 100 µM (inactive)
SNB-19
  GI50: > 100 µM (inactive)
DU-145
  GI50: > 100 µM (inactive)
SF-268
  GI50: > 100 µM (inactive)
MDA-MB-435
  GI50: > 100 µM (inactive)
HCC 2998
  GI50: > 100 µM (inactive)
SW-620
  GI50: > 100 µM (inactive)
HCT-116
  GI50: > 100 µM (inactive)
CCRF-CEM
  GI50: > 100 µM (inactive)
COLO 205
  GI50: > 100 µM (inactive)
SR
  GI50: > 100 µM (inactive)

## O=C1OC[C@@H]2Cc3c([nH]c4ccccc34)[C@@H](c3cc(O)c(O)c(O)c3)N12
HT-29
  GI50: 31 µM (inactive)
OVCAR-8
  GI50: 16.4 µM (inactive)
MDA-N
  GI50: 5.97 µM (inactive)
HOP-62
  GI50: 21.4 µM (inactive)
NCI/ADR-RES
  GI50: 21.8 µM (inactive)
HL-60
  GI50: 2.72 µM (inactive)
RPMI-8226
  GI50: 27.5 µM (inactive)
MOLT-4
  GI50: 32.6 µM (inactive)
UACC-62
  GI50: 8.93 µM (inactive)
Hs-578T
  GI50: 15.7 µM (inactive)
SK-OV-3
  GI50: > 100 µM (inactive)
T47D
  GI50: 37 µM (inactive)
SF-539
  GI50: 18.9 µM (inactive)
NCI-H460
  GI50: 37.8 µM (inactive)
K562
  GI50: 3.91 µM (inactive)
SK-MEL-5
  GI50: 8.39 µM (inactive)
M14
  GI50: 15.2 µM (inactive)
HCT-15
  GI50: 31 µM
MCF7
  GI50: 21.2 µM (inactive)
MDA-MB-231
  GI50: 20.7 µM (inactive)
SN12C
  GI50: 26.9 µM (inactive)
HOP-92
  GI50: > 100 µM (inactive)
ACHN
  GI50: 31.2 µM (inactive)
NCI-H23
  GI50: 29.4 µM (inactive)
SF-295
  GI50: 2.57 µM (inactive)
A549
  GI50: > 100 µM (inactive)
CAKI-1
  GI50: 8.67 µM (inactive)
IGROV-1
  GI50: 25 µM (inactive)
786-0
  GI50: 20.6 µM (inactive)
A498
  GI50: 12 µM (inactive)
SNB-75
  GI50: 3.29 µM (inactive)
TK-10
  GI50: 41.5 µM (inactive)
PC-3
  GI50: 31.3 µM (inactive)
NCI-H226
  GI50: 13.5 µM (inactive)
OVCAR-5
  GI50: 19.7 µM (inactive)
SK-MEL-2
  GI50: 3.14 µM (inactive)
EKVX
  GI50: 44.5 µM (inactive)
UO-31
  GI50: 27.3 µM (inactive)
U-251
  GI50: 25.3 µM (inactive)
SK-MEL-28
  GI50: 17.3 µM (inactive)
SNB-19
  GI50: 24 µM (inactive)
DU-145
  GI50: 68.2 µM (inactive)
UACC-257
  GI50: 2.99 µM (inactive)
SF-268
  GI50: 34.9 µM (inactive)
MDA-MB-435
  GI50: 2.69 µM (inactive)
HCC 2998
  GI50: 48.1 µM (inactive)
SW-620
  GI50: 21.3 µM (inactive)
HCT-116
  GI50: 25.3 µM (inactive)
CCRF-CEM
  GI50: 12.6 µM (inactive)
COLO 205
  GI50: 23.4 µM (inactive)
NCI-H522
  GI50: 5.09 µM (inactive)
Malme-3M
  GI50: 4.37 µM (inactive)
KM12
  GI50: 44.5 µM (inactive)
SR
  GI50: 13.9 µM (inactive)
RXF 393
  GI50: 18.9 µM (inactive)
OVCAR-4
  GI50: 12.9 µM (inactive)

## CCCCCCCCCCCCCCCCCC(=O)OCC(COC1OC(CS(=O)(=O)O)C(O)C(O)C1O)OC(=O)CCCCCCCCCCCCCCCCC (centres undefined)
HT-29
  GI50: > 100 µM (inactive)
OVCAR-8
  GI50: > 100 µM (inactive)
MDA-N
  GI50: > 100 µM (inactive)
HOP-62
  GI50: > 100 µM (inactive)
NCI/ADR-RES
  GI50: > 100 µM (inactive)
LOX IMVI
  GI50: > 100 µM (inactive)
HL-60
  GI50: > 100 µM (inactive)
RPMI-8226
  GI50: > 100 µM (inactive)
MOLT-4
  GI50: > 100 µM (inactive)
UACC-62
  GI50: > 100 µM (inactive)
Hs-578T
  GI50: > 100 µM (inactive)
SK-OV-3
  GI50: > 100 µM (inactive)
T47D
  GI50: > 100 µM (inactive)
SF-539
  GI50: > 100 µM (inactive)
NCI-H460
  GI50: > 100 µM (inactive)
K562
  GI50: > 100 µM (inactive)
SK-MEL-5
  GI50: > 100 µM (inactive)
M14
  GI50: > 100 µM (inactive)
HCT-15
  GI50: > 100 µM
MCF7
  GI50: > 100 µM (inactive)
MDA-MB-231
  GI50: > 100 µM (inactive)
SN12C
  GI50: > 100 µM (inactive)
HOP-92
  GI50: 45.2 µM (inactive)
ACHN
  GI50: > 100 µM (inactive)
NCI-H23
  GI50: > 100 µM (inactive)
SF-295
  GI50: > 100 µM (inactive)
A549
  GI50: > 100 µM (inactive)
CAKI-1
  GI50: > 100 µM (inactive)
IGROV-1
  GI50: > 100 µM (inactive)
786-0
  GI50: > 100 µM (inactive)
A498
  GI50: > 100 µM (inactive)
SNB-75
  GI50: 10.4 µM (inactive)
TK-10
  GI50: > 100 µM (inactive)
PC-3
  GI50: > 100 µM (inactive)
NCI-H226
  GI50: > 100 µM (inactive)
OVCAR-5
  GI50: > 100 µM (inactive)
EKVX
  GI50: > 100 µM (inactive)
U-251
  GI50: > 100 µM (inactive)
SK-MEL-28
  GI50: > 100 µM (inactive)
SNB-19
  GI50: > 100 µM (inactive)
DU-145
  GI50: > 100 µM (inactive)
UACC-257
  GI50: > 100 µM (inactive)
SF-268
  GI50: > 100 µM (inactive)
MDA-MB-435
  GI50: > 100 µM (inactive)
HCC 2998
  GI50: > 100 µM (inactive)
SW-620
  GI50: > 100 µM (inactive)
HCT-116
  GI50: > 100 µM (inactive)
CCRF-CEM
  GI50: > 100 µM (inactive)
COLO 205
  GI50: > 100 µM (inactive)
NCI-H522
  GI50: > 100 µM (inactive)
Malme-3M
  GI50: > 100 µM (inactive)
KM12
  GI50: > 100 µM (inactive)
SR
  GI50: 0.222 µM (active)
RXF 393
  GI50: > 100 µM (inactive)
OVCAR-3
  GI50: > 100 µM (inactive)
OVCAR-4
  GI50: > 100 µM (inactive)

## O=c1ccn(C2OC(CO)C(O)C2O)c(=O)[nH]1 (centres undefined)
M14
  GI50: > 1000 µM (inactive)
MDA-MB-231
  GI50: > 1000 µM (inactive)
CAKI-1
  GI50: > 1000 µM (inactive)
NCI-H226
  GI50: > 1000 µM (inactive)
OVCAR-5
  GI50: > 1000 µM (inactive)
DU-145
  GI50: > 1000 µM (inactive)
UACC-257
  GI50: > 1000 µM (inactive)
BT-549
  GI50: > 1000 µM (inactive)
NCI-H522
  GI50: > 1000 µM (inactive)
